Tested on: MDA-MB-231 cells
Assay: Vacuolation of MDA-MB-231 cells caused by inhibition of compounds on PIKfyve (microscopy)
Format: cell-based
Conditions: MDA-MB-231 cells
Text: I. Determination of Vacuolation of MDA-MB-231 Cells Caused by Inhibition of Compounds on PIKfyve
When the activity of pikfyve kinase is inhibited, vacuoles will be produced in cytoplasm. By observing the number of vacuoles under a microscope, the ability of compounds to inhibit the activity of pikfyve kinase can be known.
1. Cell plating: cells in logarithmic growth phase were made into a single cell suspension, counted with a cell counter and diluted to a cell concentration of about 2×10^5/mL. Then, the cells were inoculated into a 12-well plate, and cultured in a 37° C., 5% CO2 incubator.
3. Vacuolation test: after 24 and 48 hours of culture, photos were taken under an […] to observe the degree of vacuolation.
(In the table, “+” represents the degree of vacuolation; more “+” indicates more obvious vacuolation; “−” represents no vacuolation)

Cc1ccc(C(=O)Nc2cccc(OC(F)(F)F)c2)cc1Nc1nc(-c2cccnc2)cn2c(Br)cnc12 [VI-b-4]
degree of vacuolation, 1 μM, 24 h: −
degree of vacuolation, 1 μM, 48 h: −
degree of vacuolation, 10 μM, 24 h: +
degree of vacuolation, 10 μM, 48 h: +

O=C(Nc1cccc(C(F)(F)F)c1)c1ccc(F)c(Nc2cc(-c3cccnc3)nc3[nH]ccc23)c1 [I-a-38]
degree of vacuolation, 1 μM, 24 h: +
degree of vacuolation, 1 μM, 48 h: +
degree of vacuolation, 10 μM, 24 h: ++
degree of vacuolation, 10 μM, 48 h: ++

Cc1ccc(C(=O)Nc2ccc(CN3CCN(C)CC3)c(C(F)(F)F)c2)cc1Nc1cc(-c2cccnc2)nc2[nH]ccc12 [I-a-24]
degree of vacuolation, 1 μM, 24 h: −
degree of vacuolation, 1 μM, 48 h: −
degree of vacuolation, 10 μM, 24 h: −
degree of vacuolation, 10 μM, 48 h: −

Cc1ccc(C(=O)Nc2cccc(Cl)c2)cc1Nc1cc(-c2cccnc2)nc2[nH]ccc12 [I-a-35]
degree of vacuolation, 1 μM, 24 h: +
degree of vacuolation, 1 μM, 48 h: ++
degree of vacuolation, 10 μM, 24 h: +
degree of vacuolation, 10 μM, 48 h: ++

Cc1ccc(NC(=O)c2cccc(C(F)(F)F)c2)cc1Nc1nc(-c2ccncc2)nc2ccn(C)c12 [V-b-2]
degree of vacuolation, 1 μM, 24 h: −
degree of vacuolation, 1 μM, 48 h: −
degree of vacuolation, 10 μM, 24 h: ++
degree of vacuolation, 10 μM, 48 h: ++

Cc1cc(NS(=O)(=O)c2ccccc2)ccc1Nc1nc(-c2cccnc2)c2[nH]ccc2n1 [V-c-35]
degree of vacuolation, 1 μM, 24 h: −
degree of vacuolation, 1 μM, 48 h: −
degree of vacuolation, 10 μM, 24 h: +
degree of vacuolation, 10 μM, 48 h: +

Cc1ccc(C(=O)Nc2ccc(CN3CCN(C)CC3)c(C(F)(F)F)c2)cc1Nc1nc(-c2ccncc2)nc2cc[nH]c12 [V-a-10]
degree of vacuolation, 1 μM, 24 h: ++
degree of vacuolation, 1 μM, 48 h: ++
degree of vacuolation, 10 μM, 24 h: −
degree of vacuolation, 10 μM, 48 h: −

CN1CCN(Cc2cc(NC(=O)c3cccc(Nc4cc(-c5ccncc5)nc5[nH]ccc45)c3)cc(C(F)(F)F)c2)CC1 [I-a-27]
degree of vacuolation, 1 μM, 24 h: +
degree of vacuolation, 1 μM, 48 h: −
degree of vacuolation, 10 μM, 24 h: +
degree of vacuolation, 10 μM, 48 h: −

Cc1ccc(C(=O)Nc2cccc(OC(F)(F)F)c2)cc1Nc1nc(-c2cccnc2)nc2c1ncn2C [IV-b-11]
degree of vacuolation, 1 μM, 24 h: +
degree of vacuolation, 1 μM, 48 h: +
degree of vacuolation, 10 μM, 48 h: +

COc1cccc(NC(=O)c2ccc(C)c(Nc3cc(-c4cccnc4)nc4[nH]ccc34)c2)c1 [I-a-32]
degree of vacuolation, 1 μM, 24 h: +
degree of vacuolation, 1 μM, 48 h: ++
degree of vacuolation, 10 μM, 24 h: +
degree of vacuolation, 10 μM, 48 h: ++

Cc1ccc(NC(=S)Nc2cccc(C(F)(F)F)c2)cc1Nc1cc(-c2cccnc2)nc2[nH]ccc12 [I-a-40]
degree of vacuolation, 1 μM, 24 h: +
degree of vacuolation, 1 μM, 48 h: +
degree of vacuolation, 10 μM, 24 h: +
degree of vacuolation, 10 μM, 48 h: +

Cc1ccc(NC(=O)c2cccc(C(F)(F)F)c2)cc1Nc1nc(-c2ccncc2)nc2cc[nH]c12 [V-a-4]
degree of vacuolation, 1 μM, 24 h: −
degree of vacuolation, 1 μM, 48 h: −
degree of vacuolation, 10 μM, 24 h: −
degree of vacuolation, 10 μM, 48 h: −

Cc1ccc(C(=O)Nc2ccc(CN3CCN(C)CC3)c(C(F)(F)F)c2)cc1Nc1nc(-c2ccncc2)cn2ccnc12 [VI-a-8]
degree of vacuolation, 1 μM, 48 h: −
degree of vacuolation, 10 μM, 48 h: −

O=C(Nc1cccc(C(F)(F)F)c1)c1cccc(Nc2nc(-c3cccnc3)nc3cc[nH]c23)c1 [V-a-1]
degree of vacuolation, 1 μM, 24 h: −
degree of vacuolation, 1 μM, 48 h: −
degree of vacuolation, 10 μM, 24 h: +
degree of vacuolation, 10 μM, 48 h: +

Cc1ccc(NC(=O)c2cccc(C(F)(F)F)c2)cc1Nc1nc(-c2cccnc2)nc2cc[nH]c12 [V-a-3]
degree of vacuolation, 1 μM, 24 h: ++
degree of vacuolation, 1 μM, 48 h: ++
degree of vacuolation, 10 μM, 24 h: +
degree of vacuolation, 10 μM, 48 h: +

Cc1cc(NC(=O)c2ccccc2N)ccc1Nc1nc(-c2cccnc2)c2[nH]ccc2n1 [V-c-25]
degree of vacuolation, 1 μM, 24 h: −
degree of vacuolation, 1 μM, 48 h: −
degree of vacuolation, 10 μM, 24 h: −
degree of vacuolation, 10 μM, 48 h: −

Cc1ccc(C(=O)Nc2cccc(C(F)(F)F)c2)cc1Nc1cc(-c2ccncc2)nc2[nH]ccc12 [I-a-21]
degree of vacuolation, 1 μM, 24 h: −
degree of vacuolation, 1 μM, 48 h: −
degree of vacuolation, 10 μM, 24 h: −
degree of vacuolation, 10 μM, 48 h: −

Cc1cc(NC(=O)c2ccc(C)c(Nc3cc(-c4cccnc4)nc4[nH]ccc34)c2)n(C)n1 [I-a-45]
degree of vacuolation, 1 μM, 24 h: −
degree of vacuolation, 1 μM, 48 h: +
degree of vacuolation, 10 μM, 24 h: +
degree of vacuolation, 10 μM, 48 h: +

Cc1ccc(C(=O)Nc2cccc(OC(F)(F)F)c2)cc1Nc1cc(-c2cccnc2)nc2[nH]ccc12 [I-a-33]
degree of vacuolation, 1 μM, 24 h: +
degree of vacuolation, 1 μM, 48 h: ++
degree of vacuolation, 10 μM, 24 h: +
degree of vacuolation, 10 μM, 48 h: ++

Cc1ccc(C(=O)Nc2cc(C(F)(F)F)cc(C(F)(F)F)c2)cc1Nc1cc(-c2cccnc2)nc2[nH]ccc12 [I-a-31]
degree of vacuolation, 1 μM, 24 h: −
degree of vacuolation, 1 μM, 48 h: −
degree of vacuolation, 10 μM, 24 h: −
degree of vacuolation, 10 μM, 48 h: −

Cc1ccc(C(=O)Nc2ccc(CN3CCN(C)CC3)c(C(F)(F)F)c2)cc1Nc1nc(-c2ccncc2)nc2c1ncn2C [IV-b-10]
degree of vacuolation, 1 μM, 48 h: −
degree of vacuolation, 10 μM, 48 h: −

Nc1ccc(NC(=O)c2cccc(Nc3nc(-c4cccnc4)c4[nH]ccc4n3)c2)cc1 [V-c-3]
degree of vacuolation, 1 μM, 24 h: +
degree of vacuolation, 1 μM, 48 h: +
degree of vacuolation, 10 μM, 24 h: ++
degree of vacuolation, 10 μM, 48 h: ++

O=C(Nc1cccc(C(F)(F)F)c1)c1cccc(Nc2cc(-c3cccnc3)nc3[nH]ccc23)c1 [I-a-30]
degree of vacuolation, 1 μM, 24 h: +
degree of vacuolation, 1 μM, 48 h: +
degree of vacuolation, 10 μM, 24 h: +
degree of vacuolation, 10 μM, 48 h: +

Cc1ccc(C(=O)Nc2cccc(C(F)(F)F)c2)cc1Nc1nc(-c2ccccc2)nc2c1cnn2C [III-b-2]
degree of vacuolation, 1 μM, 24 h: −
degree of vacuolation, 1 μM, 48 h: −
degree of vacuolation, 10 μM, 24 h: −
degree of vacuolation, 10 μM, 48 h: −

Cc1cn(-c2cc(NC(=O)c3ccc(C)c(Nc4nc(-c5ccncc5)nc5cc[nH]c45)c3)cc(C(F)(F)F)c2)cn1 [V-a-8]
degree of vacuolation, 1 μM, 24 h: +
degree of vacuolation, 1 μM, 48 h: +
degree of vacuolation, 10 μM, 24 h: ++
degree of vacuolation, 10 μM, 48 h: ++

Cc1ccc(NC(=O)c2cccc(C(F)(F)F)c2)cc1Nc1cc(-c2ccncc2)nc2[nH]ccc12 [I-a-10]
degree of vacuolation, 1 μM, 24 h: −
degree of vacuolation, 1 μM, 48 h: −
degree of vacuolation, 10 μM, 24 h: ++
degree of vacuolation, 10 μM, 48 h: ++

Cc1ccc(C(=O)Nc2cccc(C(F)(F)F)c2)cc1Nc1nc(-c2cccnc2)nc2ccn(C)c12 [V-b-3]
degree of vacuolation, 1 μM, 24 h: +
degree of vacuolation, 1 μM, 48 h: +
degree of vacuolation, 10 μM, 24 h: ++
degree of vacuolation, 10 μM, 48 h: ++

Cc1ccc(NC(=O)c2cccc(C(F)(F)F)c2)cc1Nc1nc(-c2cccnc2)cn2ccnc12 [VI-a-5]
degree of vacuolation, 1 μM, 24 h: −
degree of vacuolation, 1 μM, 48 h: +
degree of vacuolation, 10 μM, 24 h: −
degree of vacuolation, 10 μM, 48 h: +

Cc1ccc(C(=O)Nc2ccc(CN3CCN(C)CC3)c(C(F)(F)F)c2)cc1Nc1cc(-c2cccnc2)nc2c1ccn2C [I-b-5]
degree of vacuolation, 1 μM, 24 h: −
degree of vacuolation, 1 μM, 48 h: −
degree of vacuolation, 10 μM, 24 h: +
degree of vacuolation, 10 μM, 48 h: +

Cc1ccc(C(=O)Nc2ccc(CN3CCN(C)CC3)c(C(F)(F)F)c2)cc1Nc1nc(-c2cccnc2)nc2ccn(C)c12 [V-b-7]
degree of vacuolation, 1 μM, 24 h: +
degree of vacuolation, 1 μM, 48 h: +
degree of vacuolation, 10 μM, 24 h: −
degree of vacuolation, 10 μM, 48 h: −

COc1ccc(Br)cc1NC(=O)Nc1cccc(-c2nc(NCc3cccnc3)c3c(ccn3C)n2)c1 [V-b-29]
degree of vacuolation, 1 μM, 24 h: +
degree of vacuolation, 1 μM, 48 h: −
degree of vacuolation, 10 μM, 24 h: −
degree of vacuolation, 10 μM, 48 h: −

COc1ccc(Br)cc1NC(=S)Nc1cccc(-c2nc(NCc3cccnc3)c3c(ccn3C)n2)c1 [V-b-30]
degree of vacuolation, 1 μM, 24 h: −
degree of vacuolation, 1 μM, 48 h: −
degree of vacuolation, 10 μM, 24 h: +
degree of vacuolation, 10 μM, 48 h: +

Cc1ccc(C(=O)Nc2ccc(CN3CCN(C)CC3)c(C(F)(F)F)c2)cc1Nc1nc(-c2ccncc2)nc2[nH]cnc12 [IV-a-5]
degree of vacuolation, 1 μM, 24 h: +
degree of vacuolation, 1 μM, 48 h: −
degree of vacuolation, 10 μM, 24 h: +
degree of vacuolation, 10 μM, 48 h: −

Cc1cn(-c2cc(NC(=O)c3ccc(C)c(Nc4nc(-c5cccnc5)nc5cc[nH]c45)c3)cc(C(F)(F)F)c2)cn1 [V-a-7]
degree of vacuolation, 1 μM, 24 h: −
degree of vacuolation, 1 μM, 48 h: −
degree of vacuolation, 10 μM, 24 h: +
degree of vacuolation, 10 μM, 48 h: +

Cc1ccc(C(=O)Nc2cccc(OC(F)(F)F)c2)cc1Nc1nc(-c2ccncc2)nc2[nH]cnc12 [IV-a-7]
degree of vacuolation, 1 μM, 24 h: −
degree of vacuolation, 1 μM, 48 h: −
degree of vacuolation, 10 μM, 24 h: +
degree of vacuolation, 10 μM, 48 h: ++

Cc1cccc(NC(=O)c2ccc(C)c(Nc3cc(-c4cccnc4)nc4[nH]ccc34)c2)c1 [I-a-34]
degree of vacuolation, 1 μM, 24 h: +
degree of vacuolation, 1 μM, 48 h: ++
degree of vacuolation, 10 μM, 24 h: +
degree of vacuolation, 10 μM, 48 h: ++

Cc1ccc(C(=O)Nc2ccc(CN3CCN(C)CC3)c(C(F)(F)F)c2)cc1Nc1nc(-c2cccnc2)nc2c1ncn2C [IV-b-9]
degree of vacuolation, 1 μM, 48 h: −
degree of vacuolation, 10 μM, 48 h: −
